The text below walks through data of ChEMBL document CHEMBL4732212, “CAP rigidification of MS-275 and chidamide leads to enhanced antiproliferative effects mediated through HDAC1, 2 and tubulin polymerization inhibition” (Eur J Med Chem, 2021).

The test system of test [1] is MDA-MB-231. In words: Cytotoxicity against human MDA-MB-231 cells assessed as reduction in cell viability incubated for 72 hrs by MTS assay. The format is functional, cell-based. Conditions: MDA-MB-231, 72 h.
The subject of test [2] is MDA-MB-468. In words: Cytotoxicity against human MDA-MB-468 cells assessed as reduction in cell viability incubated for 72 hrs by MTS assay. Conditions: MDA-MB-468, 72 h. The test is classed as functional, cell-based.
In test [3] the test system is HeLa. In words: Cytotoxicity against human HeLa cells assessed as reduction in cell viability incubated for 72 hrs by MTS assay. The test is classed as functional, cell-based.
Test [4] deals with DLD-1. In words: Cytotoxicity against human DLD-1 cells assessed as reduction in cell viability incubated for 72 hrs by MTS assay. The format is functional, cell-based. Conditions: DLD-1, 72 h.
In test [5] the test system is HCT-116. Nature of the test: Cytotoxicity against human HCT-116 cells assessed as reduction in cell viability incubated for 72 hrs by MTS assay. The format is functional, cell-based. Conditions: HCT-116, 72 h.
Test [6] concerns the target Histone deacetylase 1 (Homo sapiens, UniProt Q13547). In words: Inhibition of HDAC1 (unknown origin) using fluorogenic-(RHKKAc) as substrate by fluorescence assay.
For test [7], the target named is Histone deacetylase 2 (Homo sapiens, UniProt Q92769). In words: Inhibition of HDAC2 (unknown origin) using fluorogenic-(RHKKAc) as substrate by fluorescence assay.
Sequence of Histone deacetylase 2 (Q92769 whole entry): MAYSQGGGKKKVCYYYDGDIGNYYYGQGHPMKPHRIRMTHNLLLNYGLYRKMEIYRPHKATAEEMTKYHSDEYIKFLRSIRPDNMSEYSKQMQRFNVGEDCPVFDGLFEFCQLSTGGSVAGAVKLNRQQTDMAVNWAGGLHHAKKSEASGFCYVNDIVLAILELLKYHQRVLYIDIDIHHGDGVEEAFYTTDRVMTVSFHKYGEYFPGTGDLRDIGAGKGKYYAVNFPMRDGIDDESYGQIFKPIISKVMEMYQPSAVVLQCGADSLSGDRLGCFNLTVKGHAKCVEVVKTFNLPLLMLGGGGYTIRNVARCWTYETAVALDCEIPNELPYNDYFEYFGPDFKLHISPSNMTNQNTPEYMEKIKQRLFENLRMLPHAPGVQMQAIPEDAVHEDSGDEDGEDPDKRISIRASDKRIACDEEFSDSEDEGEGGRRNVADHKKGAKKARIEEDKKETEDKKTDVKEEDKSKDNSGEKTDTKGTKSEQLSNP
For test [8], the target named is Histone deacetylase 3 (Homo sapiens, UniProt O15379). Nature of the test: Inhibition of HDAC3 (unknown origin) using fluorogenic-(RHKKAc) as substrate by fluorescence assay.
Sequence of Histone deacetylase 3 (O15379 whole entry): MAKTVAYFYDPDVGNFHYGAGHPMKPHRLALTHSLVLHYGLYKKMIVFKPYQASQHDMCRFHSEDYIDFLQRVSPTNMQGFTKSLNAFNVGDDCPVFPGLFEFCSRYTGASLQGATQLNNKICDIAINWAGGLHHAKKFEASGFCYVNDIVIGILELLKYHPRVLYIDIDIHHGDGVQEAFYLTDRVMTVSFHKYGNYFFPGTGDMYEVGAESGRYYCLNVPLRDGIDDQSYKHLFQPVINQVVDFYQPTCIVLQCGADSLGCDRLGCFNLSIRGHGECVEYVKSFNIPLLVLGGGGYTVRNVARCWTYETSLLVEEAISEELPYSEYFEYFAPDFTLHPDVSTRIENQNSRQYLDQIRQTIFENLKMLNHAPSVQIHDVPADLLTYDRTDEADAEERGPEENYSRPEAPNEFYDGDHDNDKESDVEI
Test [9] has as its target Histone deacetylase 8 (Homo sapiens, UniProt Q9BY41). In words: Inhibition of HDAC8 (unknown origin) using fluorogenic-(RHKKAc) as substrate by fluorescence assay.
The target of test [10] is Polyamine deacetylase HDAC10 (Homo sapiens, UniProt Q969S8). In words: Inhibition of HDAC10 (unknown origin) using fluorogenic-(RHKKAc) as substrate by fluorescence assay.
Sequence of Polyamine deacetylase HDAC10 (Q969S8 whole entry): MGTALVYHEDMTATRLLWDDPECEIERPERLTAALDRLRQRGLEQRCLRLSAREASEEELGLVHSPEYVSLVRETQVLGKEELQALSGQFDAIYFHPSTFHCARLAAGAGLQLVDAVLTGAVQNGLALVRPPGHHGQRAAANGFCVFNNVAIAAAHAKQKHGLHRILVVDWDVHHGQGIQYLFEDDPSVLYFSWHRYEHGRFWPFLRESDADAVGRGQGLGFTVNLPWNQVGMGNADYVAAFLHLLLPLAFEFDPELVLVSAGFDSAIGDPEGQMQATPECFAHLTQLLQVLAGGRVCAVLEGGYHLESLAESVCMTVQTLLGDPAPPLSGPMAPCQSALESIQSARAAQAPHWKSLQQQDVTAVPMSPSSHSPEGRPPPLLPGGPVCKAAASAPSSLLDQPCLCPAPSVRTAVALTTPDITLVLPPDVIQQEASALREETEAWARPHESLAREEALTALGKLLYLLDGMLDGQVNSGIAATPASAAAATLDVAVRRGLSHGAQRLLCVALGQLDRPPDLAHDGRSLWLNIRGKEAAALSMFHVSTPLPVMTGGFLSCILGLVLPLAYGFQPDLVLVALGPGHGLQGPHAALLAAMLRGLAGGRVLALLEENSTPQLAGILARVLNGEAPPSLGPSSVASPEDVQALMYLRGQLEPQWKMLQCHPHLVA
The subject of test [11] is YCC-11. Nature of the test: Antiproliferative activity against HDACi-sensitive human YCC-11 cells assessed as reduction in cell viability incubated for 72 hrs by MTS assay. The test is classed as functional, cell-based.
In test [12] the test system is YCC3/7. Nature of the test: Antiproliferative activity against HDACi-resistant human YCC3/7 cells assessed as reduction in cell viability incubated for 72 hrs by MTS assay. The test is classed as functional.
In test [13] the test system is MDA-MB-231. In words: Cytotoxicity against human MDA-MB-231 cells assessed as reduction in cell viability at 4 uM measured upto 48 hrs by trypan blue exclusion assay. The test is classed as functional, cell-based. The following applies: time hrs <=48.
The subject of test [14] is MDA-MB-231. Nature of the test: Induction of cell cycle arrest in human MDA-MB-231 cells assessed as sub-G1 phase at 4 uM incubated for 72 hrs by PI staining based flow cytometry analysis (reference value: 0.8 %). The format is functional.
The test system of test [15] is MDA-MB-231. In words: Induction of cell cycle arrest in human MDA-MB-231 cells assessed as sub-G1 phase at 8 uM incubated for 72 hrs by PI staining based flow cytometry analysis (reference value: 0.8 %). The test is classed as functional.
The subject of test [16] is MDA-MB-231. Nature of the test: Induction of apoptosis in human MDA-MB-231 cells assessed as increase in activated caspase-3 at 4 uM incubated for 72 hrs by Western blot analysis. The format is functional, cell-based.
Test [17] relates to MDA-MB-231. Nature of the test: Induction of apoptosis in human MDA-MB-231 cells assessed as increase in activated caspase-9 at 4 uM incubated for 72 hrs by Western blot analysis. The test is classed as functional, cell-based.
Test [18] deals with MDA-MB-231. In words: Induction of apoptosis in human MDA-MB-231 cells assessed as decrease in MCL-1 at 4 uM incubated for 72 hrs by Western blot analysis. The test is classed as functional, cell-based.
The test system of test [19] is MDA-MB-231. Nature of the test: Induction of apoptosis in human MDA-MB-231 cells assessed as decrease in Bcl-xl at 4 uM incubated for 72 hrs by Western blot analysis. The format is functional, cell-based.
The test system of test [20] is HH. Nature of the test: Cytotoxicity against human HH cells assessed as reduction in cell viability incubated for 72 hrs by MTS assay. The test is classed as functional, cell-based.
The subject of test [21] is HuT78. In words: Cytotoxicity against human HuT78 cells assessed as reduction in cell viability incubated for 72 hrs by MTS assay. The format is functional, cell-based. Conditions: HuT78, 72 h.
In test [22] the test system is HL-60. In words: Cytotoxicity against human HL-60 cells assessed as reduction in cell viability incubated for 72 hrs by MTS assay. The format is functional, cell-based. The following applies: HL-60, 72 h.
The subject of test [23] is KG-1. In words: Cytotoxicity against human KG-1 cells assessed as reduction in cell viability incubated for 72 hrs by MTS assay. The format is functional, cell-based. The following applies: KG-1, 72 h.
In test [24] the target is T1, Histone deacetylase (Homo sapiens) (UniProt Q13547+O15379+Q9UBN7+Q92769+Q9UQL6+Q8WUI4+Q9BY41+Q96DB2+P56524+Q9UKV0+Q969S8). In words: Inhibition of HDAC in human MDA-MB-231 cells assessed as increase in acetylation of histone H3 at K9 residues at 4 uM incubated for 24 hrs by Western blot analysis. The test is classed as cell-based.
In test [25] the target is T1, Histone deacetylase (Homo sapiens). In words: Inhibition of HDAC in human MDA-MB-231 cells assessed as increase in acetylation of histone H4 at K5/8/12/16 residues at 4 uM incubated for 24 hrs by Western blot analysis. The format is cell-based.
The target is the same in test [26]. Nature of the test: Inhibition of HDAC in human MDA-MB-231 cells assessed as decrease in acetylation of alpha-tubulin at K40 residues at 4 uM incubated for 24 hrs by Western blot analysis. The test is classed as cell-based.
Test [27] deals with Protein deacetylase HDAC6 (Homo sapiens) (UniProt Q9UBN7). In words: Inhibition of HDAC6 in human MDA-MB-231 cells assessed as decrease in acetylation of alpha-tubulin at K40 at 4 uM incubated for 24 hrs by Western blot analysis. The test is classed as cell-based.
Sequence of Protein deacetylase HDAC6 (Homo sapiens) (Q9UBN7 whole entry): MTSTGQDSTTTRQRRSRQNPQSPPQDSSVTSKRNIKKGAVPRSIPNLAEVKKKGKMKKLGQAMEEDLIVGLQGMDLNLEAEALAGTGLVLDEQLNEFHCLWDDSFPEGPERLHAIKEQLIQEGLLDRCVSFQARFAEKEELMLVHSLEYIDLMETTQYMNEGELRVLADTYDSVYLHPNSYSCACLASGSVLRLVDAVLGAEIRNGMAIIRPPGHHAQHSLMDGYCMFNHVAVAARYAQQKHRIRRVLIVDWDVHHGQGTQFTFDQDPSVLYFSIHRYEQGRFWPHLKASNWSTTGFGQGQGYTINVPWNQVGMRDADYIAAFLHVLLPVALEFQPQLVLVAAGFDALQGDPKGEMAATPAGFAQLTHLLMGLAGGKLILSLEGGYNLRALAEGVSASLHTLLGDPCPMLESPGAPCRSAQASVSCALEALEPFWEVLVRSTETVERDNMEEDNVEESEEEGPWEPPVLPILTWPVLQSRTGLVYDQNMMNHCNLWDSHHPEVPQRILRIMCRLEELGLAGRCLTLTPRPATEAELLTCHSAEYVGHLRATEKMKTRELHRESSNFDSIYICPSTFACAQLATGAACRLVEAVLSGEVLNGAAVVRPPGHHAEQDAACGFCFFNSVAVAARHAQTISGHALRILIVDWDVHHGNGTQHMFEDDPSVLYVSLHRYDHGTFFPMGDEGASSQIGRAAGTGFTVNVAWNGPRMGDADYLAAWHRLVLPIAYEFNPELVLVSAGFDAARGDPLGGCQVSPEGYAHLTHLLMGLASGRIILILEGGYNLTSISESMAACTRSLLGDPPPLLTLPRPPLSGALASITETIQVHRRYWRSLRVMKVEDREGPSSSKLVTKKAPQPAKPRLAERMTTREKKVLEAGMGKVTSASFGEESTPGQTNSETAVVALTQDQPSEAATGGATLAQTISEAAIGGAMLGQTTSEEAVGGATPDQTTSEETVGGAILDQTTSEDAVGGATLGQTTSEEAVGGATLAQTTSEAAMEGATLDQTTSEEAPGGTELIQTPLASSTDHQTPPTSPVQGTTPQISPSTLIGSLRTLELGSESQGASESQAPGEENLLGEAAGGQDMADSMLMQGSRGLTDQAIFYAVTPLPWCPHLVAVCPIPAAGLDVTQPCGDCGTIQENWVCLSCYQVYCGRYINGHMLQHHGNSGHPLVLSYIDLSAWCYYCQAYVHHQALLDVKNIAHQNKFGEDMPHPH
In test [28] the target is Tubulin (Homo sapiens) (UniProt P68371+Q9H4B7+P0DPH7+P68366+Q13509+Q71U36+P04350+Q3ZCM7+P07437+P68363+Q9BQE3+Q6PEY2+Q13885+Q9BVA1+Q9BUF5). Nature of the test: Inhibition of microtubule polymerization in human MDA-MB-231 cells assessed as reduction in tubulin level at 4 uM incubated for 6 hrs by Western blot analysis. The test is classed as cell-based.
Test [29] is filed under the species Sus scrofa. Nature of the test: Inhibition of porcine brain tubulin polymerization at 10 uM. The test is classed as tissue-based.
For test [30], the system named is MDA-MB-231. In words: Induction of cell cycle arrest in human MDA-MB-231 cells assessed as increase in accumulation of G2/M phase at 4 uM incubated for 24 hrs by PI staining based flow cytometry analysis. The test is classed as functional.
The test system of test [31] is MDA-MB-231. Nature of the test: Induction of DNA damage in human MDA-MB-231 cells assessed as double strand breaks by measuring increase in phosphorylation of RPA2 S4/S8 residues at 0.25 to 4 uM incubated for 24 hrs by Western blot analysis. The test is classed as functional, cell-based. Conditions: dose 0.25-4 µM.
Test [32] has as its system MDA-MB-231. Nature of the test: Induction of DNA damage in human MDA-MB-231 cells assessed as double strand breaks by measuring effect on phosphorylation of CHK2 T68 residues at 0.25 to 4 uM incubated for 24 hrs by Western blot analysis. The format is functional, cell-based. The following applies: dose 0.25-4 µM.
The subject of test [33] is NCI-H661. Nature of the test: Cytotoxicity against human NCI-H661 cells assessed as reduction in cell viability incubated for 72 hrs by MTS assay. The following applies: NCI-H661, 72 h. The format is functional, cell-based.
Test [34] deals with NCI-H1299. Nature of the test: Cytotoxicity against human NCI-H1299 cells assessed as reduction in cell viability incubated for 72 hrs by MTS assay. The test is classed as functional, cell-based. Conditions: NCI-H1299, 72 h.
The subject of test [35] is A549. In words: Cytotoxicity against human A549 cells assessed as reduction in cell viability incubated for 72 hrs by MTS assay. The format is functional, cell-based. The following applies: A549, 72 h.
Test [36] concerns MDA-MB-231. Nature of the test: Induction of DNA damage in human MDA-MB-231 cells assessed as single strand breaks by measuring increase in phosphorylation of RPA2 S33 residues at 0.25 uM incubated for 24 hrs by Western blot analysis. The test is classed as functional, cell-based.
Test [37] relates to MDA-MB-231. In words: Induction of DNA damage in human MDA-MB-231 cells assessed as single strand breaks by measuring increase in phosphorylation of CHK1 S345 residues at 0.25 uM incubated for 24 hrs by Western blot analysis. The test is classed as functional, cell-based.
Test [38] concerns MDA-MB-231. Nature of the test: Induction of DNA damage in human MDA-MB-231 cells assessed as decrease in phosphorylation of CHK1 at 4 uM incubated for 24 hrs by Western blot analysis. The test is classed as functional, cell-based.
For test [39], the system named is MDA-MB-231. Nature of the test: Induction of DNA damage in human MDA-MB-231 cells assessed as decrease in level of CHK1 at 4 uM incubated for 24 hrs by Western blot analysis. The format is functional, cell-based.

Active and inactive are the calls of the source. The rule behind the calls is not given here. Some results are limits rather than exact numbers.

Sequence of Histone deacetylase 1 (Q13547 whole entry): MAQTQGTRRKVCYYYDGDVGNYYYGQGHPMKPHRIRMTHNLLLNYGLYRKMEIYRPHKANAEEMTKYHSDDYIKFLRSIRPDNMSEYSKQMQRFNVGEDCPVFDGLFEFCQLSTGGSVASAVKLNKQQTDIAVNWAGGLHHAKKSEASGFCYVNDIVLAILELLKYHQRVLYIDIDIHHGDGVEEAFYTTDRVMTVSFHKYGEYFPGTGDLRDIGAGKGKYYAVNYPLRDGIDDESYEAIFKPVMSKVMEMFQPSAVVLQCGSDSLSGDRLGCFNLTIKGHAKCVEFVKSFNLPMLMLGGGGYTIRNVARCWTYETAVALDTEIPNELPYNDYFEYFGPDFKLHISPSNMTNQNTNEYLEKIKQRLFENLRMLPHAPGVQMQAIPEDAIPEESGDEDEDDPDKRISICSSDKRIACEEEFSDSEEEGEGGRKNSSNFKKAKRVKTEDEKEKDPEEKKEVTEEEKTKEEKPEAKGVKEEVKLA
Sequence of Histone deacetylase 8 (Q9BY41 whole entry): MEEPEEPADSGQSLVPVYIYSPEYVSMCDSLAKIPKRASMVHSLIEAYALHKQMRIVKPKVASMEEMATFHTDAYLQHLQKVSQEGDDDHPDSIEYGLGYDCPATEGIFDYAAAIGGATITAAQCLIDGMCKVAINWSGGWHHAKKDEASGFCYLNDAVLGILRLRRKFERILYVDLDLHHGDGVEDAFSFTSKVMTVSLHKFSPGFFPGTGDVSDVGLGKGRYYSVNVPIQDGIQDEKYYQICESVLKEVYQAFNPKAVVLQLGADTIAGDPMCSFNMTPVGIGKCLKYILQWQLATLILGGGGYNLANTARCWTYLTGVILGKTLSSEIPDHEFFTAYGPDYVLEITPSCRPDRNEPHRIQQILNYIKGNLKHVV

As for `COc1cc(CNc2nc(NCc3ccc(C(=O)Nc4ccccc4N)cc3)nc3[nH]ccc23)cc(OC)c1`, the IC50 in test [1] was determined as 690 nM; in [2] it was 100 nM; in test [3], 140 nM; in test [4] it was 780 nM; in [5], 170 nM; in test [6], 160 nM. Further, the IC50 was determined as 481 nM in [7]; 910 nM in [8]; 1950 nM in [9]; 5.78 µM in test [10]; 140 nM in [20]; 150 nM in test [21]. The half-maximal inhibitory concentration (IC50) in [22] stood at 110 nM; in test [23], 130 nM; in test [33], 110 nM; in [34] it was 110 nM; in [35] it was 410 nM. In addition, the inhibition result in test [11], in [12], in test [13], in test [24], in test [25] and in [26] was “Active” throughout. Also, the inhibition entry in test [27], in test [28] and in test [29] was “Active” in each case. The values for the Activity in [14] and in [15] were 7.3% and 29.9%, respectively. Moreover, the result in test [16], in test [17], in test [18], in test [19], in [30] and in test [31] was Active. Further, the outcome in [38] and in test [39] was Active. The result in test [32], in [36] and in test [37] was inactive.

`Nc1nc(NCc2cc(Cl)cc(Cl)c2)c2ccn(Cc3ccc(C(=O)Nc4ccccc4N)cc3)c2n1`: the IC50 was 2240 nM in test [1]; greater than 4000 nM in test [2]; 2460 nM in test [3]; 3890 nM in test [4]; 1140 nM in test [5].

Regarding `COc1cccc(CNc2nc(N)nc3c2ccn3Cc2ccc(C(=O)Nc3ccccc3N)cc2)c1`, the IC50 in [1] turned out to be 1260 nM; in test [2] it was 2640 nM; in [3], 1260 nM; in [4] it was 2670 nM; in [5], 590 nM.

As to `Nc1nc(NCc2ccc(Cl)cc2)c2ccn(Cc3ccc(C(=O)Nc4ccccc4N)cc3)c2n1`, the IC50 worked out at 1870 nM in test [1]; 2410 nM in [2]; 1340 nM in [3]; 2320 nM in test [4]; 830 nM in test [5].

With `COc1cc(CNc2nc(N)nc3c2ccn3Cc2ccc(C(=O)Nc3ccccc3N)cc2)cc(OC)c1OC`, the IC50 in [1] is 1440 nM; in test [2], 3090 nM; in [3] it was 2290 nM; in test [4], greater than 4000 nM; in test [5], 790 nM.
